From patent US20240067632A1, “WEE1 Degrading Compounds and Uses Thereof” (Bristol-Myers Squibb Company, priority 2022, published 2024)
Like-named read-outs stand apart in the source and are kept apart here.

Tests used:
MKN45 cells = experiment: MKN45 cell proliferation assay (Cell-Titer-Glo, 120 h); assay type: cell-based; conditions: for EC50: Homo sapiens, MKN-45, 120 h, Cell-Titer-Glo, read-out: MKN45 Cell Prolif. 120 hr (EC50); for MKN45 Cell Prolif. 120 hr (Ymin-Obs): minimal percent of DMSO control observed in the concentrations tested
In short: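 Cells seeded at 400/well onto pre-printed 10-point half-log dilutions (top 1 or 10 uM, 0.1% DMSO final), in triplicate, and grown 120 h at 37 C. Viability by Cell-Titer-Glo luminescence, blank-subtracted and normalised to DMSO; EC50 from four-parameter logistic fit, with observed minimal % of control recorded as Ymin-obs.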

WEE1 = target: T1, WEE1 (Homo sapiens, UniProt P30291+Q96SW2); experiment: WEE1-ePL degradation assay (LentiX-WEE1-ePL-GSPT1-ND cells, InCELL Hunter luminescence, 4 h); assay type: cell-based; conditions: 293T-LentiX WEE1-ePL cells; for DC50: read-out: 293T-LentiX WEE1-ePL Degradation 4 hr (EC50)
T1 construct: C-terminal ePL-tagged (DiscoverX, Fremont, CA) full-length WEE1 expression construct; expressed in transfected cells; host or cells: LentiX-HEK293T (Invitrogen), lentiviral transduction; co-expressing GSPT1-GN (G576N, lacking the first 158 amino acids)
In short: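 Degradation EC50 was fitted by a four-parameter logistic model, with the upper limit taken from DMSO wells. Luminescence was read with InCELL Hunter reagent after 30 min at room temperature, following a 4 h, 37° C exposure of 2500 cells/well. Cells were LentiX-HEK293T carrying ePL-tagged full-length WEE1, dosed in 10 points (3-fold) from 1 or 10 uM.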

[1] = lower limit of the fit (Ymin=0 luciferase inhibitor, Ymax DMSO control)
[2] = lower limit of the fit (0 = luciferase inhibitor, Ymax = DMSO control)

O=C1CC[C@H](N2Cc3cc(O[C@@H]4CN(Cc5ccc6nc(C7CCOCC7)ncc6c5)CC4(F)F)ccc3C2=O)C(=O)N1 [(3S)-3-(5-{[(3R)-4,4-difluoro-1-{[2-(oxan-4-yl)quinazolin-6-yl]methyl}pyrrolidin-3-yl]oxy}-1-oxo-2,3-dihydro-1H-isoindol-2-yl)piperidine-2,6-dione]
EC50 (MKN45 cells): 45.8 nM
MKN45 Cell Prolif. 120 hr (Ymin-Obs) (MKN45 cells): 10.37
293T-LentiX WEE1-ePL Degradation 4 hr (Ymin) (WEE1; [1]): 22.61
DC50 (WEE1): 105 nM

Cn1cc2cc(CN3CC[C@H](Oc4ccc5c(c4)CN(C4CCC(=O)NC4=O)C5=O)C3)ccc2n1 (stereo partly drawn) [3-(5-{[(3S)-1-[(2-methyl-2H-indazol-5-yl)methyl]pyrrolidin-3-yl]oxy}-1-oxo-2,3-dihydro-1H-isoindol-2-yl)piperidine-2,6-dione]
EC50 (MKN45 cells; growth inhibition): > 10000 nM
MKN45 Cell Prolif. 120 hr (Ymin-Obs) (MKN45 cells): 81.985
293T-LentiX WEE1-ePL Degradation 4 hr (Ymin) (WEE1; [2]): 52
DC50 (WEE1): 40.5 nM

O=C1CCC(N2Cc3cc(O[C@H]4CCN(Cc5ccc6nc(N7CC8(CCOCC8)C7)ncc6c5)C4)ccc3C2=O)C(=O)N1 (stereo partly drawn) [3-(5-{[(3S)-1-[(2-{7-oxa-2-azaspiro[3.5]nonan-2-yl}quinazolin-6-yl)methyl]pyrrolidin-3-yl]oxy}-1-oxo-2,3-dihydro-1H-isoindol-2-yl)piperidine-2,6-dione]
EC50 (MKN45 cells; growth inhibition): 10.2 nM
MKN45 Cell Prolif. 120 hr (Ymin-Obs) (MKN45 cells): 9.958
293T-LentiX WEE1-ePL Degradation 4 hr (Ymin) (WEE1; [2]): 35
DC50 (WEE1): 16.6 nM

O=C1CC[C@H](N2Cc3cc(O[C@H]4CCN(Cc5cc6cnc(N7CCOCC7)nc6cc5F)C4)ccc3C2=O)C(=O)N1 [(3S)-3-(5-{[(3S)-1-{[7-fluoro-2-(morpholin-4-yl)quinazolin-6-yl]methyl}pyrrolidin-3-yl]oxy}-1-oxo-2,3-dihydro-1H-isoindol-2-yl)piperidine-2,6-dione]
EC50 (MKN45 cells): 15.2 nM
MKN45 Cell Prolif. 120 hr (Ymin-Obs) (MKN45 cells): 10.84
293T-LentiX WEE1-ePL Degradation 4 hr (Ymin) (WEE1; [1]): 36.02
DC50 (WEE1): 14.7 nM

O=C1CCC(N2Cc3cc(O[C@H]4CCN(Cc5ccc6nc(N7CCC78CCOCC8)ncc6c5)C4)ccc3C2=O)C(=O)N1 (stereo partly drawn) [3-(5-{[(3S)-1-[(2-{7-oxa-1-azaspiro[3.5]nonan-1-yl}quinazolin-6-yl)methyl]pyrrolidin-3-yl]oxy}-1-oxo-2,3-dihydro-1H-isoindol-2-yl)piperidine-2,6-dione]
EC50 (MKN45 cells; growth inhibition): 12.6 nM
MKN45 Cell Prolif. 120 hr (Ymin-Obs) (MKN45 cells): 13.59
293T-LentiX WEE1-ePL Degradation 4 hr (Ymin) (WEE1; [2]): 37
DC50 (WEE1): 11.4 nM

O=C1CCC(N2Cc3cc(O[C@H]4CCN(Cc5ccc6nc([C@H]7C[C@H](O)C7)ccc6c5)C4)ccc3C2=O)C(=O)N1 (stereo partly drawn) [3-(1-oxo-5-{[(3S)-1-({2-[(1r,3r)-3-hydroxycyclobutyl]quinolin-6-yl}methyl)pyrrolidin-3-yl]oxy}-2,3-dihydro-1H-isoindol-2-yl)piperidine-2,6-dione]
EC50 (MKN45 cells; growth inhibition): 5.02 nM
MKN45 Cell Prolif. 120 hr (Ymin-Obs) (MKN45 cells): 7.85
293T-LentiX WEE1-ePL Degradation 4 hr (Ymin) (WEE1; [2]): 32
DC50 (WEE1): 3.8 nM

O=C1CCC(N2Cc3cc(O[C@H]4CCN(Cc5cc6cccnc6cn5)C4)ccc3C2=O)C(=O)N1 (stereo partly drawn) [3-(5-{[(3S)-1-[(1,7-naphthyridin-6-yl)methyl]pyrrolidin-3-yl]oxy}-1-oxo-2,3-dihydro-1H-isoindol-2-yl)piperidine-2,6-dione]
EC50 (MKN45 cells; growth inhibition): 102 nM
MKN45 Cell Prolif. 120 hr (Ymin-Obs) (MKN45 cells): 9.59
293T-LentiX WEE1-ePL Degradation 4 hr (Ymin) (WEE1; [2]): 26.505
DC50 (WEE1): 14.7 nM

COc1ccc2cc(CN3CC[C@H](Oc4ccc5c(c4)CN(C4CCC(=O)NC4=O)C5=O)C3)nnc2c1 (stereo partly drawn) [3-(5-{[(3S)-1-[(7-methoxycinnolin-3-yl)methyl]pyrrolidin-3-yl]oxy}-1-oxo-2,3-dihydro-1H-isoindol-2-yl)piperidine-2,6-dione]
EC50 (MKN45 cells; growth inhibition): 12.4 nM
MKN45 Cell Prolif. 120 hr (Ymin-Obs) (MKN45 cells): 7.52
293T-LentiX WEE1-ePL Degradation 4 hr (Ymin) (WEE1; [2]): 28
DC50 (WEE1): 5.48 nM

C[C@H]1c2cc(O[C@H]3CCN(Cc4ccc5nc(C6CCOCC6)ccc5c4)C3)ccc2C(=O)N1[C@H]1CCC(=O)NC1=O [(3S)-3-[(3S)-3-methyl-5-{[(3S)-1-{[2-(oxan-4-yl)quinolin-6-yl]methyl}pyrrolidin-3-yl]oxy}-1-oxo-2,3-dihydro-1H-isoindol-2-yl]piperidine-2,6-dione]
EC50 (MKN45 cells): 374 nM
MKN45 Cell Prolif. 120 hr (Ymin-Obs) (MKN45 cells): 86.82
293T-LentiX WEE1-ePL Degradation 4 hr (Ymin) (WEE1; [1]): 49.25
DC50 (WEE1): 212 nM

O=C1CCC(N2Cc3cc(O[C@H]4CCN(Cc5ccc6nc([C@@H]7CCC[C@@H](O)C7)ccc6c5)C4)ccc3C2=O)C(=O)N1 (stereo partly drawn) [3-(5-{[(3S)-1-({2-[(1R,3R)-3-hydroxycyclohexyl]quinolin-6-yl}methyl)pyrrolidin-3-yl]oxy}-1-oxo-2,3-dihydro-1H-isoindol-2-yl)piperidine-2,6-dione]
EC50 (MKN45 cells; growth inhibition): 1.18 nM
MKN45 Cell Prolif. 120 hr (Ymin-Obs) (MKN45 cells): 8.405
293T-LentiX WEE1-ePL Degradation 4 hr (Ymin) (WEE1; [2]): 31
DC50 (WEE1): 3.18 nM

CN(c1ccc2cc(CN3CC[C@H](Oc4ccc5c(c4)CN(C4CCC(=O)NC4=O)C5=O)C3)ccc2n1)C1CCOCC1 (stereo partly drawn) [3-(5-{[(3S)-1-({2-[methyl(oxan-4-yl)amino]quinolin-6-yl}methyl)pyrrolidin-3-yl]oxy}1-oxo-2,3-dihydro-1H-isoindol-2-yl)piperidine-2,6-dione]
EC50 (MKN45 cells; growth inhibition): 3.5 nM
MKN45 Cell Prolif. 120 hr (Ymin-Obs) (MKN45 cells): 8.45
293T-LentiX WEE1-ePL Degradation 4 hr (Ymin) (WEE1; [2]): 32
DC50 (WEE1): 1.82 nM

CC1(C)C[C@H](c2ncc3cc(CN4CC[C@H](Oc5ccc6c(c5)CN([C@H]5CCC(=O)NC5=O)C6=O)C4)ccc3n2)CCO1 [(3S)-3-(5-{[(3S)-1-({2-[(4R)-2,2-dimethyloxan-4-yl]quinazolin-6-yl}methyl)pyrrolidin-3-yl]oxy}-1-oxo-2,3-dihydro-1H-isoindol-2-yl)piperidine-2,6-dione]
EC50 (MKN45 cells): 15.5 nM
MKN45 Cell Prolif. 120 hr (Ymin-Obs) (MKN45 cells): 11.79
293T-LentiX WEE1-ePL Degradation 4 hr (Ymin) (WEE1; [1]): 29.31
DC50 (WEE1): 32.3 nM

C[C@@H]1CN(Cc2cc(F)c3nc(C4CCOCC4)ccc3c2)C[C@H]1Oc1ccc2c(c1)CN([C@H]1CCC(=O)NC1=O)C2=O [(3S)-3-(5-{[(3S,4R)-1-{[8-fluoro-2-(oxan-4-yl)quinolin-6-yl]methyl}-4-methylpyrrolidin-3-yl]oxy}-1-oxo-2,3-dihydro-1H-isoindol-2-yl)piperidine-2,6-dione]
EC50 (MKN45 cells): 1.42 nM
MKN45 Cell Prolif. 120 hr (Ymin-Obs) (MKN45 cells): 9.05
293T-LentiX WEE1-ePL Degradation 4 hr (Ymin) (WEE1; [1]): 33.52
DC50 (WEE1): 1.05 nM

COC[C@@H]1CC[C@@H](c2ccc3cc(CN4CC[C@H](Oc5ccc6c(c5)CN(C5CCC(=O)NC5=O)C6=O)C4)ccc3n2)C1 (stereo partly drawn) [3-(5-{[(3S)-1-({2-[(1R,3R)-3-(methoxymethyl)cyclopentyl]quinolin-6-yl}methyl)pyrrolidin-3-yl]oxy}-1-oxo-2,3-dihydro-1H-isoindol-2-yl)piperidine-2,6-dione]
EC50 (MKN45 cells): 3.05 nM
MKN45 Cell Prolif. 120 hr (Ymin-Obs) (MKN45 cells): 8.79
293T-LentiX WEE1-ePL Degradation 4 hr (Ymin) (WEE1; [1]): 34.2
DC50 (WEE1): 3.01 nM

Cc1ncc2ccc(CN3CC[C@H](Oc4ccc5c(c4)CN(C4CCC(=O)NC4=O)C5=O)C3)cc2n1 (stereo partly drawn) [3-(5-{[(3S)-1-[(2-methylquinazolin-7-yl)methyl]pyrrolidin-3-yl]oxy}-1-oxo-2,3-dihydro-1H-isoindol-2-yl)piperidine-2,6-dione]
EC50 (MKN45 cells; growth inhibition): 365 nM
MKN45 Cell Prolif. 120 hr (Ymin-Obs) (MKN45 cells): 32.41
293T-LentiX WEE1-ePL Degradation 4 hr (Ymin) (WEE1; [2]): 35.02
DC50 (WEE1): 65.5 nM

O=C1CCC(N2Cc3cc(O[C@H]4CCN(Cc5cnc6ccc(F)cc6c5)C4)ccc3C2=O)C(=O)N1 (stereo partly drawn) [3-(5-{[(3S)-1-[(6-fluoroquinolin-3-yl)methyl]pyrrolidin-3-yl]oxy}-1-oxo-2,3-dihydro-1H-isoindol-2-yl)piperidine-2,6-dione]
EC50 (MKN45 cells; growth inhibition): 64.5 nM
MKN45 Cell Prolif. 120 hr (Ymin-Obs) (MKN45 cells): 16.03
293T-LentiX WEE1-ePL Degradation 4 hr (Ymin) (WEE1; [2]): 30.015
DC50 (WEE1): 9.19 nM

O=C1CCC(N2Cc3cc(O[C@H]4CCN(Cc5ccc6c(c5)NC(=O)CO6)C4)ccc3C2=O)C(=O)N1 (stereo partly drawn) [3-(1-oxo-5-{[(3S)-1-[(3-oxo-3,4-dihydro-2H-1,4-benzoxazin-6-yl)methyl]pyrrolidin-3-yl]oxy}-2,3-dihydro-1H-isoindol-2-yl)piperidine-2,6-dione]
EC50 (MKN45 cells; growth inhibition): > 10000 nM
MKN45 Cell Prolif. 120 hr (Ymin-Obs) (MKN45 cells): 88.425
293T-LentiX WEE1-ePL Degradation 4 hr (Ymin) (WEE1; [2]): 70
DC50 (WEE1): 558 nM

COC(C)(C)c1ccc2cc(CN3CC[C@H](Oc4ccc5c(c4)CN(C4CCC(=O)NC4=O)C5=O)C3)ccc2n1 (stereo partly drawn) [3-(5-{[(3S)-1-{[2-(2-methoxypropan-2-yl)quinolin-6-yl]methyl}pyrrolidin-3-yl]oxy}-1-oxo-2,3-dihydro-1H-isoindol-2-yl)piperidine-2,6-dione]
EC50 (MKN45 cells; growth inhibition): 2.98 nM
MKN45 Cell Prolif. 120 hr (Ymin-Obs) (MKN45 cells): 6.21
293T-LentiX WEE1-ePL Degradation 4 hr (Ymin) (WEE1; [2]): 32.5
DC50 (WEE1): 2.6 nM

O=C1CCC(N2Cc3cc(O[C@H]4CCN(Cc5ccc6nc([C@H]7CC[C@@H](O)C7)ccc6c5)C4)ccc3C2=O)C(=O)N1 (stereo partly drawn) [3-(5-{[(3S)-1-({2-[(1S,3R)-3-hydroxycyclopentyl]quinolin-6-yl}methyl)pyrrolidin-3-yl]oxy}-1-oxo-2,3-dihydro-1H-isoindol-2-yl)piperidine-2,6-dione]
EC50 (MKN45 cells; growth inhibition): 2.66 nM
MKN45 Cell Prolif. 120 hr (Ymin-Obs) (MKN45 cells): 7.68
293T-LentiX WEE1-ePL Degradation 4 hr (Ymin) (WEE1; [2]): 31
DC50 (WEE1): 2.99 nM
